Reference: patent US20100029683A1, “Methods for regulating cell mitosis by inhibiting serine/threonine phosphateses” (priority 2008, published 2010)

Columns and labels:
[1] = tested on: U373; experiment: Inhibition of U373 glioblastoma cells after 7 days in culture, alone and in combination; assay type: cell-based, human; settings: Compound 100 2.5 μM, cisplatin 0.1 μM, doxorubicin 0.01 μM, taxol 0.3 nM, each alone
Description: Cells were exposed to vehicle alone (control); Compound 100 at 2.5 uM; cisplatin at 0.1 uM; doxorubicin at 0.01 uM; or taxol at 0.3 nM alone or to the combination of Compound 100 plus each of the standard agents at the same concentrations. […] The expected percent inhibition at 7 days is the product of the inhibition by each agent alone.
Cells were exposed to vehicle alone (control); compound 100 at 2.5 μM, cisplatin at 0.1 μM; doxorubicin at 0.01 μM; or taxol at 0.3 nM alone or to the combination of compound 100 plus each of the standard agents at the same concentrations. […] The expected percent inhibition from a combination of drugs is calculated by multiplying the actual percent inhibition by each drug alone and comparing that product to the actual percent inhibition caused by the combination of the two drugs (Valeriote, 1975). The expected percent inhibition at 7 days is the product of the inhibition by each agent alone.

[2] = tested on: U373 cells; experiment: Western blots of pAkt-1, p53 and MDM2 in U373 cells after 24 hours; assay type: cell-based, human; settings: U373, 2 nM
Description: (§1) 5×10^6 U87MG cells were inoculated s.c. into each flank of 20 SCID mice. When the xenografts were 0.5±0.1 cm (day 0), 5 animals each received i.p. vehicle alone days 1-12 (50% DMSO/H2O); compound 102 alone at 1.5 mg/kg days 1-3,5-7, & 9-11; TMZ alone at 80 mg/kg days 4, 8, 12; or both drugs at the same doses and schedules. If xenografts reached 1800 mm^3, animals were sacrificed. […] B, Survival curve combining the data from the study shown in FIG. 12A, with a second identical study involving a total of 10 animals with two xenografts each. Disease-free survival was defined as no recurrence of either xenografts. […] As in 12A, except that xenografts of SH-SY5Y cells were implanted in one flank only and animals were treated with one additional cycle of drugs, i.e., compound 102 on days 13-15, TMZ, on day 16, and compound 102 plus TMZ on the same schedules. […] E, Western blots of U87 cells in culture 24 hours after exposure to compound 102 at 2.5 uM, TMZ at 25 uM or DOX at 2 uM, and compound 102 plus TMZ or DOX. F, Western blots of U373 cells 24 hours after exposure to compound 102 at 2.5 uM, doxorubicin at 2 uM, and both drugs. G, Western blots of U373 cells 24 hours after exposure to TMZ at 25 uM, okadaic acid at 2 nM, and both drugs.

[3] = tested on: NB xenografts; experiment: Histologic examination of xenografts 24 hours after a single i.p. injection; assay type: in vivo, SCID mice; settings: 24 hours after single i.p. injection
[4] = tested on: U373 cells; experiment: Cell cycle distribution of U373 cells by FACS after 48 hours; assay type: cell-based, human; settings: U373, 48 hours
Description: (§2) Cells in unsynchronized logarithmic growth were exposed to vehicle or drug and adherent cells and cells in the media were collected. Harvested cells were fixed with 70% cold ethanol for 20 min at −20 degrees, washed with PBS, and stained with 10 ug/ml of PI and 1 ug/ml RNAse in TBS for 30 minutes and analyzed by FACS. A, Flow cytometry profiles of U87 cells after exposures to DMSO only, compound 102 only, 5 uM; TMZ only, 25 uM; compound 102 with TMZ combination, doxorubicin only, 2.0 uM and compound 102 with doxorubicin combination. B, Flow cytometry profiles of U373 cells.
(§3) We analyzed cell cycle patterns of U87MG and U373 cells 48 hours after exposure to TMZ or DOX alone and in combination with compound 102.

[5] = biological target: PP1 (Homo sapiens, UniProt P62136); experiment: Inhibition of purified PP1 (Ser/Thr Phosphatase Assay Kit 1); assay type: biochemical
Excerpt: (§4) Inhibition of PP2A and PP1 activity by compound 102 on purified PP1 and PP2A (mean and s.d.; n=3) (Ser/Thr Phosphatase Assay Kit 1, Millipore, Billerica, Mass.)

[6] = tested on: SH-SY5Y xenografts; experiment: SH-SY5Y neuroblastoma s.c. xenografts in SCID mice, compound 102 with TMZ; assay type: in vivo; settings: as U87MG study plus one additional cycle of drugs; followed 7 weeks
Description: 5×10^6 U87MG cells were inoculated s.c. into each flank of 20 SCID mice. When the xenografts were 0.5±0.1 cm (day 0), 5 animals each received i.p. vehicle alone days 1-12 (50% DMSO/H2O); compound 102 alone at 1.5 mg/kg days 1-3,5-7, & 9-11; TMZ alone at 80 mg/kg days 4, 8, 12; or both drugs at the same doses and schedules. If xenografts reached 1800 mm^3, animals were sacrificed. […] B, Survival curve combining the data from the study shown in FIG. 12A, with a second identical study involving a total of 10 animals with two xenografts each. Disease-free survival was defined as no recurrence of either xenografts. […] As in 12A, except that xenografts of SH-SY5Y cells were implanted in one flank only and animals were treated with one additional cycle of drugs, i.e., compound 102 on days 13-15, TMZ, on day 16, and compound 102 plus TMZ on the same schedules. […] E, Western blots of U87 cells in culture 24 hours after exposure to compound 102 at 2.5 uM, TMZ at 25 uM or DOX at 2 uM, and compound 102 plus TMZ or DOX. F, Western blots of U373 cells 24 hours after exposure to compound 102 at 2.5 uM, doxorubicin at 2 uM, and both drugs. G, Western blots of U373 cells 24 hours after exposure to TMZ at 25 uM, okadaic acid at 2 nM, and both drugs. […]

[7] = tested on: PP2A; experiment: PP2A activity in U87 s.c. xenografts and normal brain of SCID mice after i.p. injection; assay type: in vivo; settings: single dose 1.5 mg/kg i.p.
Description: PP2A activity in U87 s.c. xenografts (blue) and in normal brain tissue (yellow) of SCID mice at different times after i.p. injection of 1.5 mg/kg compound 102 (one mouse per point; each lysate was measured in triplicate: mean and s.d.)

[8] = tested on: DAOY medulloblastoma cells; experiment: DAOY medulloblastoma s.c. xenografts in SCID mice; assay type: in vivo; settings: treatment from day 6, measured to day 23
Description: DAOY medulloblastoma cells were implanted subcutaneously into the flanks of SCID mice. On day 6, mice were divided into 3 groups, one group receiving Compound 100, one group receiving Compound 102, and one group receiving vehicle alone. The subcutaneous tumor masses were measured on day 6, day 13, day 18, and on day 23 when all animals were sacrificed. […] In this model DAOY cells, when untreated, reached their maximum growth about 2 weeks after implantation with slow regression thereafterwards.

[9] = tested on: U87MG xenografts; experiment: U87MG s.c. xenografts in SCID mice, compound 102 with TMZ; assay type: in vivo
Description: as §1
To determine the impact of altering DNA-damage defense mechanisms by inhibiting PP2A on the efficacy of cytotoxic chemotherapy, the effects of compound 102 combined with TMZ, a non-specific DNA-methylating drug, routinely used for the palliative treatment of GBM patients (Prados et al, 2008), were studied. SCID mice bearing s.c. xenografts of either the GBM line U87MG or the neuroblastoma line SH-SY5Y were treated with vehicle alone, compound 102 alone, TMZ alone, or both drugs at the same doses and schedules as when given alone.

[10] = tested on: U87MG; experiment: Western blots of pAkt, p53 and MDM2 in U87MG cells after 24 hours; assay type: cell-based, human; settings: compound 102 2.5 uM, TMZ 25 uM, DOX 2 uM
Description: as §1
The effects of compound 102, TMZ, doxorubicin (DOX), a widely used anti-cancer drug that disrupts DNA replication, compound 102 plus TMZ, and compound 102 plus DOX on the amount of pAkt, p53 and MDM2 in U87MG, a cell line with wild-type p53, and in U373, a cell line with mutant p53 (Short et al, 2007) were assessed by Western blots.

[11] = biological target: PP2A (Homo sapiens, UniProt P67775); experiment: Inhibition of purified PP2A (Ser/Thr Phosphatase Assay Kit 1); assay type: biochemical
Excerpt: as §4

[12] = Solubility character of lead compounds; assay type: physicochemical
[13] = tested on: U87 cells; experiment: U87 cell growth in vitro, viable cell count; assay type: cell-based, human; settings: U87 cells (FIG. 6), read-out: IC50, inhibition of GBM cell growth
Description: FIG. 6: Effect of compound 102 on U87 cells in vitro at 1 uM; 2 uM; 5 uM; and 10 uM.
Viable cells were counted (mean and s.d.; n=3; Coulter particle counter).

[14] = tested on: U87MG cells; experiment: Cellular and molecular changes in U87MG cells (immunofluorescence, Western blots); assay type: cell-based, human; settings: 2.5 uM
Description: FIG. 11A-G: Cellular and molecular changes in U87 cells induced by compound 102 at 2.5 uM after 24 hour exposure (A-D, F, G) and after 3 hours ([…]).
A, Nuclear changes in U87 cells in unsynchronized logarithmic growth (upper panel, green immunofluorescence [IFS] GFP labeled-actin α and lower panel, blue DAPI staining). Numerous irregular nuclei with clumped chromatin in compound 102 treated cells are indicated by arrows. B, Disordered microtubules (green IFS tubulin-α and red IFS pPlk-1-Tre 210) and irregular clumped chromatin (blue DAPI) C, Western blots of U87 lysates: pAkt-1, total Akt-1, and β-actin. D, Western blots of U87 lysates: TCTP, pPlk (Tre-210), total Plk, and β-actin. E, IFS of TCTP in U87 cells, F, Western blots p53 (ser-15), pMDM2 (ser-166), and β-actin and G, IFS of p53 (ser-15).
TCTP is an abundant, highly conserved, multifunctional protein that binds to and stabilizes microtubules before and after mitosis and also exerts potent anti-apoptotic activity (Bommer and Thiele, 2004; Yarm, 2002; Susini et al, 2008) (FIG. 11E).

[15] = tested on: U87 cells; experiment: Immunofluorescence staining of p53; assay type: cell-based, human; settings: 24 hour exposure, compound 102 2.5 uM, TMZ 25 uM
[16] = tested on: U87MG cells; experiment: Cell cycle distribution of U87MG cells by FACS after 48 hours; assay type: cell-based, human
Description: as §2, §3

PP2A (Homo sapiens, UniProt P67775), sequence (P67775 whole entry): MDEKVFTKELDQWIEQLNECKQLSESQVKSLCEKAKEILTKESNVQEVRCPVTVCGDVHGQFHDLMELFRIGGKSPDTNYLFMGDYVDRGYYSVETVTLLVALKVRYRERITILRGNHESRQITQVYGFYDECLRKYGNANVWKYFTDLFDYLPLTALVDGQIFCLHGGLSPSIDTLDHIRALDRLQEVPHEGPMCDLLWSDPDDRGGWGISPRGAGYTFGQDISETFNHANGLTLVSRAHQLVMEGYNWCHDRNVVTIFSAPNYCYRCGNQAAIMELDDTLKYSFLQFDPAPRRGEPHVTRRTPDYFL
PP1, sequence (P62136 whole entry): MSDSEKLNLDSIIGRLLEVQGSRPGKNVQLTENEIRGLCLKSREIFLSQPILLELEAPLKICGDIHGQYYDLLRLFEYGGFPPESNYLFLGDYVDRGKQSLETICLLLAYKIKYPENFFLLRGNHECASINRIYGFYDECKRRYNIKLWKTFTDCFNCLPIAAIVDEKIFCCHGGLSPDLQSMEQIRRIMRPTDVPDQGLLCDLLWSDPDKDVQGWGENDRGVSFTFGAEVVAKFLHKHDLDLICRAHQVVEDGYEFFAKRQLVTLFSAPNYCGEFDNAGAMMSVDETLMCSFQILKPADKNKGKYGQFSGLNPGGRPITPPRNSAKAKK

N.N.[Cl][Pt][Cl] [cisplatin]
inhibition at 7 days, agent alone [1]: 93.5%

C=C1[C@@H](O)[C@@H]2O[C@]3(CC[C@H](/C=C/[C@@H](C)[C@@H]4CC(C)=C[C@@]5(O[C@H](C[C@@](C)(O)C(=O)O)CC[C@H]5O)O4)O3)CC[C@H]2O[C@@H]1[C@@H](O)C[C@H](C)[C@H]1O[C@@]2(CCCCO2)CC[C@H]1C [Okadaic acid, okadaic acid]
effects on pAkt-1 and mutant p53 [2]: mimicked the effects of compound 102 on pAkt-1 and on mutant p53

Cn1nnc2c(C(N)=O)ncn2c1=O [TMZ, temozolomide, reference compound]
cells with cytoplasmic swelling and vacuolization [3]: ~50%

CC(C)(C)OC(=O)N1CCN(C(=O)C2C(C(=O)O)[C@H]3CC[C@@H]2O3)CC1 (stereo partly shown) [Compound 102]
cell cycle profile [4]: no effect on this profile | IC50 [5]: ~80 µM | cells with decreased cell size / small pyknotic nuclei [3]: ~50% | growth of NB (SH-SY5Y) xenografts [6]: completely suppressed growth for 2 weeks | PP2A activity in normal brain tissue [7]: inhibits PP2A activity | PP2A activity in s.c. xenografts of U87 MG [7]: inhibits PP2A activity | DAOY s.c. tumor mass [8]: marked regression of the tumor by day 23 | time of sacrifice (xenografts reached 1800 mm^3) ([9]; U87 xenografts, for the combination only the 3 mice with recurrence): 4-5 week | growth of GBM (U87MG) xenografts ([9]; compound 102 1.5 mg/kg i.p. days 1-3, 5-7, 9-11, TMZ 80 mg/kg days 4, 8, 12): minimally delayed growth | GBM xenografts: animals with complete regression without recurrence ([9]; compound 102 combined with temozolomide, greater than 28 weeks): 50% | MDM2 on Western blot [10]: increased both pAkt-1 and MDM2 | p53 on Western blot [10]: eliminated p53 | pAkt-1 on Western blot [10]: increased both pAkt-1 and MDM2 | IC50 [11]: ~0.4 µM | solubility character [12]: lipid soluble | IC50 [13]: ~4 µM | p53 abundance [14]: decreased the abundance of p53 | phosphorylated MDM2 [14]: increased phosphorylated MDM2 | TCTP abundance ([14]; 24 hour exposure): marked decrease in translationally controlled tumor protein | microtubule and mitotic morphology (mitotic catastrophe) ([14]; 24 hour exposure): appearance of disordered microtubules and abnormal mitotic figures | phosphorylated Akt-1 ([14]; 24 hour exposure): increased phosphorylated Akt-1 | phosphorylated Plk-1 ([14]; 24 hour exposure): increased phosphorylated Plk-1 | intracellular levels of p53 by immunofluorescence [15]: reduction of intracellular levels of p53 | G1 phase cells [16]: decreased G1 | G2/M phase cells [16]: prominently increased G2/M | S phase cells [16]: modestly increased S

COc1cccc2c1C(=O)c1c(O)c3c(c(O)c1C2=O)C[C@@](O)(C(=O)CO)C[C@@H]3O[C@H]1C[C@H](N)[C@H](O)[C@H](C)O1 [DOX, doxorubicin]
G1 phase cells [4]: reduced G1 and G2/M | G2/M phase cells [4]: reduced G1 and G2/M | S phase cells [4]: greatly increased S | inhibition at 7 days, agent alone [1]: 75.7% | MDM2 on Western blot [10]: little effect on MDM2 | p53 on Western blot [10]: increased p53 | pAkt-1 on Western blot [10]: decreased pAkt-1

CC(=O)O[C@H]1C(=O)[C@@]2(C)[C@H]([C@H](OC(=O)c3ccccc3)[C@]3(O)C[C@H](OC(=O)[C@H](O)[C@@H](NC(=O)c4ccccc4)c4ccccc4)C(C)=C1C3(C)C)[C@]1(OC(C)=O)CO[C@@H]1C[C@@H]2O [Taxol]
inhibition at 7 days, agent alone [1]: 114%
